Measurements as given in ChEMBL document CHEMBL1649136, “Plasmodium falciparum pfmdr1 amplification, mefloquine resistance, and parasite fitness” (Antimicrob Agents Chemother, 2009).

Tested on: Plasmodium falciparum
Experiment: Antimicrobial activity against Plasmodium falciparum isolate TM3036 expressing 1 copies of pfmdr1 gene

Cl.OC(c1cc(C(F)(F)F)nc2c(C(F)(F)F)cccc12)C1CCCCN1 (stereo unspecified) [MEFLOQUINE HYDROCHLORIDE]
IC50: 1.47 ng/mL
